{"source": "paper PMC9369442", "about": "“Synthetic Peucedanocoumarin IV Prevents α-Synuclein Neurotoxicity in an Animal Model of Parkinson’s Disease” (International Journal of Molecular Sciences, 2022)", "key": {"[1]": {"tested_on": "β23 (HA-tagged) in SH-SY5Y cells", "experiment": "β23 clearance by Western blot and immunofluorescence of HA-tagged β23", "assay_type": "cell-based, Human", "settings": "1 μM; for HA-β23 immunofluorescence signal in mCherry-positive transfected cells: 37 h", "method": "Figure 1 Peucedanocoumarin IV (PCiv) inhibits β23 aggregations and cytotoxicity in SH-SY5Y cells. (A) Scheme showing the detailed experimental steps in the organic synthesis of racemic PCiv and racemic PCiii (rac-PCiii, and rac-PCiv). Both PCiii and PCiv used in this study are racemic forms. (B) Trypan blue exclusion cell viability assessment in SH-SY5Y cells with Tet-Off-induced β23 expressions. β23 was expressed for 24 h using the Tet-off system. Further expression of β23 was halted by doxycycline (Dox) treatment with simultaneous treatment of the PCiii, PCiv, or their synthetic intermediate, trans-khellatone (t-khellatone, 1 μM 24 h). Cell viability was assessed 24 h after doxycycline treatment (n = 5 per group). (C) Synthetic PCiv’s protective effect on Tet-Off-expressed β23 toxicity in SH-SY5Y cells compared with peucedanocoumarin III (PCiii) determined by trypan blue exclusion assay. (D) The degradation of β23 monitored by Western blot at 37 h after doxycycline (200 ng/mL) treatment. The representative Western blot image of HA (β23) in SH-SY5Y cells treated with synthetic PCiii, synthetic PCiv (1 μM, 37 h), or DMSO as a vehicle. (E) Quantification of HA (β23) expression in SH-SY5Y cells from the indicated experimental groups in panel D (n = 3 experiments per group). (F) Representative immunofluorescence of steady state HA (β23) expression in SH-SY5Y cells expressing Tet-Off regulatable reporter mCherry and HA-tagged β23. […] (G) Quantification of HA (β23) immunofluorescence signal in mCherry positive SH-SY5Y cells in each experimental group (n = 32 cells from three separate experiments per group). The data are expressed as means ± SEMs. * p < 0.05, ** p < 0.01, *** p < 0.001, and **** p < 0.0001, ANOVA test followed by Tukey’s post hoc analysis. […]\nLysis buffer was added to the SH-SY5Y cells washed with ice-cold PBS (1% Nonidet P40 in PBS, pH 7.4) that was supplemented with protease/phosphatase inhibitors. […] The supernatants were quantified through BCA protein assessment. […] Next, band quantification was performed using ImageJ software. […]"}, "[2]": {"tested_on": "α-synuclein PFF-treated mice cortical neurons", "experiment": "PFF-induced neurotoxicity in cortical neurons, CCK-8 assay", "assay_type": "cell-based, mouse", "settings": "CCK-8, 14 days PFF, 1 μM every 2 days", "method": "Figure 2 PCiv prevents α-synuclein aggregation in vitro and in cultured neurons with PFF treatment. (A) Representative Western blots showing the degree of recombinant α-synuclein (αSyn) aggregation in a test tube in the presence or absence of PCiv (100 μM) at the indicated incubation duration (phosphate-buffered saline [PBS], 37 °C for 3 or 5 days). Aggregation of α-synuclein was determined using α-synuclein antibody. (B) Quantification of the relative amount of α-synuclein aggregate in high molecular weight sizes in panel A (n = 3 per group). (C) Representative immunofluorescence of MAP2 and Lewy-like inclusion marker pS129-αSyn in mice cortical neurons treated with α-synuclein preformed fibril (PFF) (1 μg, for 14 days). […] (D) Quantification of pS129-αSyn immunofluorescence signal intensities in MAP2-positive cortical neurons in each experimental group (n = 15 cells from three separate experiments). (E) Cell viability assessment in the indicated experimental groups was monitored by CCK-8 assay (n = 3 per group). The data are expressed as means ± SEMs. * p < 0.05, ** p < 0.01, *** p < 0.001, and **** p < 0.0001, ANOVA test followed by Tukey’s post hoc analysis.\nCD1 mice were purchased from Orient Co. for use in the mouse primary neuron culture. […] The optical value was read at 450 nm using a multi-detection microplate reader (Synergy, BioTek Instruments Inc., Winooski, VT, USA)."}}}
{"smiles": "C/C=C(\\C)C(=O)O[C@H]1[C@H](OC(C)=O)c2c(ccc3ccc(=O)oc23)OC1(C)C", "note": "(relative stereo) [PCiv, trans-4′-acetyl-3′-tigloylkhellactone]", "values": [{"measurement": "HA-β23 immunofluorescence signal in mCherry-positive transfected cells", "setting": "[1]", "value": "markedly reduced"}, {"measurement": "steady-state β23 expression levels (Western blot)", "setting": "[1]; 37 h after doxycycline", "value": "markedly reduced"}, {"measurement": "PFF-induced neurotoxicity (neuron viability)", "setting": "[2]", "value": "prevented"}]}
{"smiles": "C/C=C(\\C)C(=O)O[C@@H]1c2c(ccc3ccc(=O)oc23)OC(C)(C)[C@H]1OC(C)=O", "note": "(relative stereo) [PCiii, peucedanocoumarin III]", "values": [{"measurement": "HA-β23 immunofluorescence signal in mCherry-positive transfected cells", "setting": "[1]", "value": "markedly reduced"}, {"measurement": "PFF-induced neurotoxicity (neuron viability)", "setting": "[2]", "value": "prevented"}]}
